This experiment has as its target T1, HIV-1 IN-LEDGF binding (Human immunodeficiency virus type 1 group M subtype B, UniProt P12497).
T1 construct: Preparation of recombinant full-length IN and LEDGF proteins; made in house; host or cells: E. coli BL21(DE3)
The experiment in a line: biochemical. As for the experimental part: Proteins were expressed in E. coli BL21(DE3). Briefly, His-IN was purified by loading the precipitate of cell lysate onto a Ni-Sepharose column and eluting with a […] imidazole gradient (0–500 mM) in a HEPES buffer (50 mM, pH 7.5) containing NaCl (1 M), CHAPS (7.5 mM), and β-mercaptoethanol (2 mM). FLAG-IN was purified by loading the precipitate of cell lysate onto a phenyl-sepharose and ammonium sulfate gradient (0–800 mM) in a HEPES (pH 7.5, 50 mM) buffer containing NaCl (200 mM), CHAPS (7.5 mM), and β-mercaptoethanol (2 mM). Peak fractions were pooled, loaded onto a heparin column, and eluted with an increasing NaCl gradient (200 mM to 1 M) in a HEPES (pH 7.5, 50 mM) buffer containing CHAPS (7.5 mm) and β-mercaptoethanol (2 mM). Fractions containing integrase were pooled and stored in glycerol (10%) at −80°C.
Briefly, His-IN was preincubated with different concentrations of a compound in a buffer containing NaCl (150 mm), MgCl2 (2 mM), Nonidet P-40 (0.1%), BSA (1 mg/ml), and Tris (pH 7.4, 25 mm) for 30 min at room temperature. Then, FLAG-LEDGF was added to the reaction mixture, and a mixture of anti-His6-XL665 and anti-FLAG-EuCryptate antibodies was added.

The source of these data is publication PMC10328743, “5-Nitro-3-(2-(4-phenylthiazol-2-yl)hydrazineylidene)indolin-2-one derivatives inhibit HIV-1 replication by a multitarget mechanism of action” (Frontiers in Cellular and Infection Microbiology, 2023).

Consider `O=C1Nc2ccc(Cl)cc2/C1=N/Nc1nc(-c2ccc(Cl)c(Cl)c2)cs1` [9b], for which the IC50 was greater than 100 µM. Consider `Cc1ccc(-c2csc(N/N=C3\C(=O)Nc4ccc([N+](=O)[O-])cc43)n2)cc1` [10a], for which the IC50 was greater than 100 µM and the “IC50 IN/LEDGF binding” value was “without interfering with the binding of LEDGF”.
